# Experimental data as given in ChEMBL document CHEMBL3045586, “Synthesis and antimicrobial activity of some new 4-triazolylmethoxy-2H-chromen-2-one derivatives” (2012).
# Legend:
# Escherichia coli [1] = assay type: functional, MTCC 443
# Pseudomonas aeruginosa [2] = assay: Antibacterial activity against Pseudomonas aeruginosa MTCC 424 after 16 to 18 hr by serial dilution method; assay type: functional
# Escherichia coli [3] = assay: Bactericidal against Escherichia coli MTCC 443 after 3 days; assay type: functional; details: MTCC 443, 72 h
# Pseudomonas aeruginosa [4] = assay type: functional, MTCC 424
# Staphylococcus aureus [5] = assay: Bactericidal activity against Staphylococcus aureus MTCC 096 after 3 days; assay type: functional; details: MTCC 096, 72 h
# Aspergillus flavus [6] = assay: Antifungal activity against Aspergillus flavus MTCC 277 after 28 to 30 hr by serial dilution method; assay type: functional
# Aspergillus fumigatus [7] = assay: Antifungal activity against Aspergillus fumigatus MTCC 343 at […] to […] ug/ml after 28 to 30 hr by cup-plate method; assay type: functional
# Staphylococcus aureus [8] = assay: Antibacterial activity against Staphylococcus aureus MTCC 096 after 16 to 18 hr by serial dilution method; assay type: functional
# Aspergillus niger [9] = assay: Antifungal activity against Aspergillus niger MTCC 282 at […] to […] ug/ml after 28 to 30 hr by cup-plate method; assay type: functional
# Klebsiella pneumoniae [10] = assay: Antibacterial activity against Klebsiella pneumoniae MTCC 432 after 16 to 18 hr by serial dilution method; assay type: functional
# Escherichia coli [11] = assay: Antibacterial activity against Escherichia coli MTCC 443 after 16 to 18 hr by serial dilution method; assay type: functional
# Bacillus subtilis [12] = assay type: functional, MTCC 441
# Aspergillus flavus [13] = assay: Antifungal activity against Aspergillus flavus MTCC 277 at […] to […] ug/ml after 28 to 30 hr by cup-plate method; assay type: functional
# [14] = tested on: Staphylococcus epidermidis; assay type: functional, MTCC 435; note: test concentration or dose not given here
# Salmonella typhi [15] = assay: Antibacterial activity against Salmonella enterica subsp. enterica serovar Typhi MTCC 733 after 16 to 18 hr by serial dilution method; assay type: functional
# Salmonella typhi [16] = assay: Antibacterial activity against Salmonella enterica subsp. enterica serovar Typhi MTCC 733 at […] to […] ug/ml after 16 to 18 hr by cup-plate method; assay type: functional
# Bacillus subtilis [17] = assay: Antibacterial activity against Bacillus subtilis MTCC 441 after 16 to 18 hr by serial dilution method; assay type: functional
# Staphylococcus aureus [18] = assay type: functional, MTCC 096
# Aspergillus niger [19] = assay: Fungicidal activity against Aspergillus niger MTCC 282 after 3 days; assay type: functional; details: MTCC 282, 72 h
# Candida albicans [20] = assay: Fungicidal activity against Candida albicans MTCC 227 after 3 days; assay type: functional; details: MTCC 227, 72 h
# Klebsiella pneumoniae [21] = assay type: functional, MTCC 432
# Candida albicans [22] = assay: Antifungal activity against Candida albicans MTCC 227 after 28 to 30 hr by serial dilution method; assay type: functional
# [23] = tested on: Staphylococcus epidermidis; assay: Antibacterial activity against Staphylococcus epidermidis MTCC 435 after 16 to 18 hr by serial dilution method; assay type: functional
# Aspergillus fumigatus [24] = assay: Antifungal activity against Aspergillus fumigatus MTCC 343 after 28 to 30 hr by serial dilution method; assay type: functional
# Candida albicans [25] = assay type: functional, MTCC 227
# Klebsiella pneumoniae [26] = assay: Bactericidal activity against Klebsiella pneumoniae MTCC 432 after 3 days; assay type: functional; details: MTCC 432, 72 h
# Aspergillus niger [27] = assay: Antifungal activity against Aspergillus niger MTCC 282 after 28 to 30 hr by serial dilution method; assay type: functional
SMILES,inhibition zone (IZ) (Escherichia coli [1]) [mm],MIC (Pseudomonas aeruginosa [2]) [µg/mL],inhibition zone (IZ) (Pseudomonas aeruginosa [4]) [mm],MIC (Aspergillus flavus [6]) [µg/mL],inhibition zone (IZ) (Aspergillus fumigatus [7]) [mm],MIC (Staphylococcus aureus [8]) [µg/mL],inhibition zone (IZ) (Aspergillus niger [9]) [mm],MIC (Klebsiella pneumoniae [10]) [µg/mL],MIC (Escherichia coli [11]) [µg/mL],inhibition zone (IZ) (Bacillus subtilis [12]) [mm],inhibition zone (IZ) (Aspergillus flavus [13]) [mm],inhibition zone (IZ) [14] [mm],MIC (Salmonella typhi [15]) [µg/mL],inhibition zone (IZ) (Salmonella typhi [16]) [mm],MIC (Bacillus subtilis [17]) [µg/mL],inhibition zone (IZ) (Staphylococcus aureus [18]) [mm],inhibition zone (IZ) (Klebsiella pneumoniae [21]) [mm],MIC (Candida albicans [22]) [µg/mL],MIC [23] [µg/mL],MIC (Aspergillus fumigatus [24]) [µg/mL],further results
O=c1cc(OCc2nnc(-c3cccs3)[nH]2)c2ccccc2o1,14,12.5,12,12.5,12,6.25,15,6.25,6.25,11,13,11,25,<10,12.5,14,15,6.25,12.5,12.5,MBC (Escherichia coli [3]): 12.5 µg/mL; MBC (Staphylococcus aureus [5]): 6.25 µg/mL; MFC (Aspergillus niger [19]): 12.5 µg/mL; MFC (Candida albicans [20]): 12.5 µg/mL; inhibition zone (IZ) (Candida albicans [25]): 15 mm; MBC (Klebsiella pneumoniae [26]): 25 µg/mL; MIC (Aspergillus niger [27]): 6.25 µg/mL
O=c1cc(OCc2nnc(-c3ccccc3)[nH]2)c2ccccc2o1,12,12.5,11,12.5,11,12.5,13,12.5,12.5,11,12,12,25,<10,12.5,11,11,6.25,12.5,12.5,inhibition zone (IZ) (Candida albicans [25]): 14 mm; MIC (Aspergillus niger [27]): 12.5 µg/mL
O=c1cc(OCc2nnc(-c3ccc(Cl)cc3)[nH]2)c2ccccc2o1,13,12.5,12,12.5,<10,12.5,12,12.5,6.25,11,12,<10,12.5,12,12.5,12,12,6.25,50,25,inhibition zone (IZ) (Candida albicans [25]): 14 mm; MIC (Aspergillus niger [27]): 12.5 µg/mL
